Results from patent publication US4622328A, “Phenyl-naphthyridines and drugs containing them, particularly anti-ulcer drugs” (priority 1984, dated 1986).
Like-named read-outs stand apart in the source and are kept apart here.

Key:
[1] = system: oedema (carragenin); assay: Anti-inflammatory activity: inhibition of carragenin oedema of the paw; assay type: in vivo, male rats of CD (Charles River) strain
Procedure: Batches of 6 to 12 male rats of CD (Charles River) strain, weighing 120-130 g, receive for food and drink a 9 o/oo solution of sodium chloride and 200 o/oo of glucose 18 hours before the test.
The volume of the paw is measured by plethysmography at regular intervals.
The active dose 50 and its limits are determined from the linear regression. The significance of the results is given by the Student "t" test (*, ** and *** for p<0.05, p<0.01 and […]).

[2] = in vivo; conditions: fasting Sprague Dawley rat, oral route
[3] = system: gastric lesions (ulcers) provoked by nonsteroid antiinflammatory agent; assay: Anti-ulcer activity: protection of gastric lesions provoked by a medicamentous ulcer forming agent (nonsteroid antiinflammatory agent); assay type: in vivo, male rats of OFA (Iffa Credo) strain; conditions: for ED50: Rattus norvegicus, po, read-out: AD50 (active dose 50)
Procedure: (§1) Batches of 10 to 30 male rats of OFA (Iffa Credo) strain, weighing 160-180 g, are placed on a water diet 24 hours before the oral administration of the product studied. Thirty minutes later, a medicamentous ulcer-forming agent or a necrosing agent (for example absolute ethanol) is administered by the oral route at doses which cause in the control animals a maximum gastric ulceration. The stomachs are removed, according to the test, 6 and 1 hr. respectively after the last treatment. The gastric lesions are then assessed macroscopically (dimensioning and measurement of the size of the ulcers).
(§2) They are expressed in the form of % of inhibition of the ulcers. The active dose 50 is determined graphically.

[4] = system: total acid secretion; assay: Anti-secretory activity: inhibition of total acid secretion after pyloric ligature; assay type: in vivo, male rats of OFA (Iffa Credo) strain; conditions: for ED50: Rattus norvegicus, 4 h, read-out: AD50 (active dose 50); for % of inhibition of the total acid secretion: 4 hours
Procedure: A pyloric ligature is made under ether anaesthesia on batches of 5 male rats of OFA (Iffa Credo) strain weighing 180-200 g. The product studied is administered by the oral or sub-cutaneous route at the time of the ligature. The animals are sacrificed 4 hours later and the acidity of the gastric fluid collected is titered by 0.1N sodium hydroxide to pH 4 and 7.
They are expressed in percentage of inhibition of the total acid secretion. The active dose 50 is determined from the linear regression. The significance is given by the Student "t" test (* and ** for p<0.05 and p<0.01).

[5] = system: painful reactions (phenylbenzoquinone); assay: Analgesic activity: inhibition of painful reactions (twists and stretches) to phenylbenzoquinone; assay type: in vivo, male mice of CDl (Charles River) strain; conditions: for DA50 (active dose): VO, linear regression
Procedure: Batches of 6 to 18 male mice of CDl (Charles River) strain, weighing 18 to 22 g, receive by the intraperitoneal route a water-alcohol 0.02% solution of phenylbenzoquinone 1 hour after treatment by the oral route. The number of painful reactions is counted from the 5th to the 10th minute.
The active dose and its limits are determined from the linear regression.

[6] = system: gastric lesions (ulcers) provoked by ethanol; assay: Anti-ulcer activity: protection of gastric lesions provoked by a necrosing agent (ethanol); assay type: in vivo, male rats of OFA (Iffa Credo) strain; conditions: for ED50: Rattus norvegicus, po, read-out: AD50 (active dose 50)
Procedure: as §1, §2

[7] = VO, NSAID lesions, determined graphically
[8] = 0.06 mg.kg-1 VO, ethanol lesions
[9] = 0.25 mg.kg-1 VO, ethanol lesions
[10] = VO, ethanol lesions, determined graphically

Structure (SMILES) | % of inhibition of the oedema ([1]; 4 mg.kg-1 VO) | % of inhibition of the oedema ([1]; 16 mg.kg-1 VO) | % of inhibition of the oedema ([1]; 64 mg.kg-1 VO) | % of inhibition of the oedema ([1]; 128 mg.kg-1 VO) | % of inhibition of the oedema ([1]; 256 mg.kg-1 VO) | LD50 [2] | % of protection of lesions provoked ([3]; 2 mg.kg-1 VO, NSAID lesions) | % of protection of lesions provoked ([3]; 4 mg.kg-1 VO, NSAID lesions) | % of protection of lesions provoked ([3]; 8 mg.kg-1 VO, NSAID lesions) | % of protection of lesions provoked ([3]; 16 mg.kg-1 VO, NSAID lesions) | % of protection of lesions provoked ([3]; 32 mg.kg-1 VO, NSAID lesions) | ED50 [3, 7] | % of inhibition of the total acid secretion ([4]; administered SC, 0.25 mg.kg-1) | % of inhibition of the total acid secretion ([4]; administered SC, 0.5 mg.kg-1) | % of inhibition of the painful reactions ([5]; 16 mg.kg-1 VO) | % of inhibition of the painful reactions ([5]; 32 mg.kg-1 VO) | % of inhibition of the painful reactions ([5]; 64 mg.kg-1 VO) | % of inhibition of the painful reactions ([5]; 128 mg.kg-1 VO) | % of inhibition of the painful reactions ([5]; 256 mg.kg-1 VO) | % of protection of lesions provoked ([6]; 1 mg.kg-1 VO, ethanol lesions) | other results
Cc1cc2cccnc2n(-c2cccc(C(F)(F)F)c2)c1=O [Examples 3 & 10, 1-(3-trifluoromethylphenyl)1,2-dihydro 2-oxo 3-methyl 1,8-naphthyridine] | 10% | 31% | 47% | 61% | 64% | > 256 mg/kg | 15% | 22% | 62% | 87% | 95% | 6.5 mg/kg | 4% | 38% | 30% | 26% | 57% | 58% | 73% | 79% | ED50 ([1]; Rattus norvegicus, po, VO, linear regression, read-out: AD50 (active dose 50)): 73.3 mg/kg; ED50 ([4]; administered SC, linear regression): 0.72 mg/kg; ED50 ([4]; po, administered VO, linear regression): 0.7 mg/kg; % of inhibition of the total acid secretion ([4]; administered SC, 1 mg.kg-1): 65%; % of inhibition of the total acid secretion ([4]; administered SC, 2 mg.kg-1): 90%; % of inhibition of the total acid secretion ([4]; administered VO, 0.125 mg.kg-1): 2%; % of inhibition of the total acid secretion ([4]; administered VO, 0.25 mg.kg-1): 18%; % of inhibition of the total acid secretion ([4]; administered VO, 0.5 mg.kg-1): 59%; % of inhibition of the total acid secretion ([4]; administered VO, 1 mg.kg-1): 56%; % of inhibition of the total acid secretion ([4]; administered VO, 2 mg.kg-1): 75%; % of inhibition of the painful reactions ([5]; 8 mg.kg-1 VO): 6%; DA50 (active dose) [5]: 69.4 mg · kg - 1; % of protection of lesions provoked [6, 8]: 0%; % of protection of lesions provoked ([6]; 0.125 mg.kg-1 VO, ethanol lesions): 17%; % of protection of lesions provoked [6, 9]: 42%; % of protection of lesions provoked ([6]; 0.5 mg.kg-1 VO, ethanol lesions): 64%; ED50 [6, 10]: 0.37 mg/kg
Cc1cc2cccnc2n(-c2ccccc2)c1=O [Example 11, 1-phenyl 1,2-dihydro 2-oxo 3-methyl 1,8-naphthyridine] | – | – | – | – | – | – | 100% | – | – | – | – | – | 76% | 81% | – | – | – | – | – | 94% | % of protection of lesions provoked ([3]; 0.25 mg.kg-1 VO, NSAID lesions): 1%; % of protection of lesions provoked ([3]; 0.5 mg.kg-1 VO, NSAID lesions): 34%; % of protection of lesions provoked ([3]; 1 mg.kg-1 VO, NSAID lesions): 75%; ED50 [3]: 0.67 mg/kg; ED50 ([4]; sc): 0.065 mg/kg; % of inhibition of the total acid secretion ([4]; administered SC, 0.03 mg.kg-1): 37%; % of inhibition of the total acid secretion ([4]; administered SC, 0.06 mg.kg-1): 46%; % of inhibition of the total acid secretion ([4]; administered SC, 0.125 mg.kg-1): 63%; % of protection of lesions provoked [6, 8]: 86%; % of protection of lesions provoked [6, 9]: 95%; % of protection of lesions provoked ([6]; 4 mg.kg-1 VO, ethanol lesions): 98%; ED50 [6]: < 0.06 mg/kg
O=c1ccc2cccnc2n1-c1cccc(C(F)(F)F)c1 [Example 4, 1-(3-trifluoromethylphenyl)1,2-dihydro 2-oxo 1,8-naphthyridine] | 14% | 21% | 80% | 70% | 83% | > 256 mg/kg | – | 11% | 40% | 68% | 81% | 12 mg/kg | – | – | 6% | 39% | 37% | 79% | 93% | 6% | DA50 (active dose) [5]: 62.0 mg · kg - 1; % of protection of lesions provoked ([6]; 2 mg.kg-1 VO, ethanol lesions): 52%; % of protection of lesions provoked ([6]; 4 mg.kg-1 VO, ethanol lesions): 87%; ED50 [6, 10]: 2.2 mg/kg
